Like-named read-outs stand apart in the source and are kept apart here.
What was measured:
[1] = target: T1, human liver glycogen phosphorylase a (HLGPa) (Homo sapiens, UniProt P06737); assay: GPa activity assay, reverse direction (inorganic phosphate release from glucose-1-phosphate), human liver isoform; assay type: biochemical
T1 construct: made in house; host or cells: E. coli XL-1 Blue (pKK233-2) or Sf9 insect cells (pBlueBac III baculovirus)
T1 sequence (P06737 2-847 limits assumed): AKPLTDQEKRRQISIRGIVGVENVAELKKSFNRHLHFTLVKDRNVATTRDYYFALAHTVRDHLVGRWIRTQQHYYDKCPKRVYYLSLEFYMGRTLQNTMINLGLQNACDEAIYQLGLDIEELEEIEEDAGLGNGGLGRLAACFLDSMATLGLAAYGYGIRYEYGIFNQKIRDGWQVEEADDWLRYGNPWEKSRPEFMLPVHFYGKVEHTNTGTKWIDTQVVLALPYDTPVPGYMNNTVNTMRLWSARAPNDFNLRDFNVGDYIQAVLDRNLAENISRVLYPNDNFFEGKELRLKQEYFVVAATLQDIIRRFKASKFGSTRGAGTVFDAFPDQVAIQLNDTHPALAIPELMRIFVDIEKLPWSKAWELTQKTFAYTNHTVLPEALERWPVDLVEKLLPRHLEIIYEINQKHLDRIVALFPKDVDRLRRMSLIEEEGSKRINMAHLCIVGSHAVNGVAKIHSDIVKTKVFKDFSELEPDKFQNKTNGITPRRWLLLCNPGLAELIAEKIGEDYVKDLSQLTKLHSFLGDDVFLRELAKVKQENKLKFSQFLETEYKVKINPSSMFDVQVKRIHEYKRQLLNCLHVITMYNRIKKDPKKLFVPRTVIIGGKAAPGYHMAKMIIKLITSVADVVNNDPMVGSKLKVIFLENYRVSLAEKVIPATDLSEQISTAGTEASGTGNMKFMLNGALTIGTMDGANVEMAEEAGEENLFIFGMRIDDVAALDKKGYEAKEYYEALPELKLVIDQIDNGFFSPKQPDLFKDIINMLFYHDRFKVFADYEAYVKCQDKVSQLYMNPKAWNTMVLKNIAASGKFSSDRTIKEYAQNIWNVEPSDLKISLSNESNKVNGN
Protocol: (§1) All reactions are run in triplicate in 96-well microtiter plates and the change in absorbance due to formation of the reaction product is measured at the wavelength specified below in a MCC/340 MKII Elisa Reader (Lab Systems, Finland), connected to a Titertech Microplate Stacker (ICN Biomedical Co, Huntsville, Ala.).
(§2) Buffer B is at pH 7.2 and contains 50 mM HEPES, 100 mM KCl, 2.5 mM EGTA, 2.5 mM MgCl2 and 0.5 mM dithiothreitol. […] After a 20 minute incubation at room temperature, the absorbance is measured at 620 nm.

[2] = target: T2, human muscle glycogen phosphorylase a (HMGPa) (Homo sapiens, UniProt P11217); assay: GPa activity assay, reverse direction (inorganic phosphate release from glucose-1-phosphate), human muscle isoform; assay type: biochemical
T2 construct: made in house; host or cells: E. coli strain XL-1 Blue (plasmid pKK233-2)
T2 sequence (P11217 2-842 limits assumed): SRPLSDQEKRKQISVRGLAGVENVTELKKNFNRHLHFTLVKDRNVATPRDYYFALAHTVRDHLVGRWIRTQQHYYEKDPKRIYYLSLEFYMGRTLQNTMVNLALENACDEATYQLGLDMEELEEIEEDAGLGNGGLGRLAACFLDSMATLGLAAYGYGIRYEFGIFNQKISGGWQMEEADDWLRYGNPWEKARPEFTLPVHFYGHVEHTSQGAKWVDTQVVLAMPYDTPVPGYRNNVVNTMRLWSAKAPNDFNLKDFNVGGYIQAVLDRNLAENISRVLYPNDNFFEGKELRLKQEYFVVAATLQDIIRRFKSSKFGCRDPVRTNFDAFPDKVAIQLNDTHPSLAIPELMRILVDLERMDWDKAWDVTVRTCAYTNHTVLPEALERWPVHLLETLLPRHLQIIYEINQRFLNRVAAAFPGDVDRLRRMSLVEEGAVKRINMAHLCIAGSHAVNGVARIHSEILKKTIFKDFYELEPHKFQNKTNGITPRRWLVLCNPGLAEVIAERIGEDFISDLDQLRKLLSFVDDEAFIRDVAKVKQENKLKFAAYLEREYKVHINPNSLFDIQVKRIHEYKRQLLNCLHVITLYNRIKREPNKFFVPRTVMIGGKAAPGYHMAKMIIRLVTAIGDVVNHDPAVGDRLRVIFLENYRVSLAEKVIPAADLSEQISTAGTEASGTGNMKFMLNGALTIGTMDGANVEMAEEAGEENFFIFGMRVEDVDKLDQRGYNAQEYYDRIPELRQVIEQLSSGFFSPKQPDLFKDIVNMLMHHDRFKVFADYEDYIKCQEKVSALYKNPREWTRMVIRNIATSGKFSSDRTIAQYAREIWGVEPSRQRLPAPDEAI
Protocol: as §1, §2

rabbit isolated heart [3] = assay: Cardioprotection (reduction of infarcted myocardium) in isolated, retrogradely perfused (Langendorff) rabbit heart after regional ischemia and reperfusion; set-up: species or system Male New Zealand White rabbits; settings: for Infarct Area/Area-at-Risk (%IA/AAR): standard error in own column, control 63.9
Text: Cardioprotection, as indicated by a reduction in infarcted myocardium, can be induced pharmacologically using adenosine receptor agonists in isolated, retrogradely perfused rabbit hearts as an in vitro model of myocardial ischemic preconditioning (Liu et al., Cardiovasc. Res., 28:1057-1061, 1994). […] The exact methodology is described below.
The protocol used for these experiments closely follows that described by Liu et al., Cardiovasc. Res., 28:1057-1061, 1994. Male New Zealand White rabbits (3-4 kg) are anesthetized with sodium pentobarbital (30 mg/kg, i.v.). After deep anesthesia is achieved (determined by the absence of an ocular blink reflex) the animal is intubated and ventilated with 100% O2 using a positive pressure ventilator. A left thoracotomy is performed, the heart exposed, and a snare (2-0 silk) is placed loosely around a branch of the left anterior descending coronary artery, approximately 2/3 of the distance towards the apex of the heart. The heart is removed from the chest and rapidly (<30 sec) mounted on a Langendorff apparatus. The heart is retrogradely perfused via the aorta in a non-recirculating manner with a modified Krebs solution (NaCl 118.5 mM, KCl 4.7 mM, Mg SO4 1.2 mM, KH2 PO4 1.2 mM, NaHCO3 24.8 mM, CaCl2 2.5 mM, and glucose 10 mM), at a constant pressure of 80 mmHg and a temperature of 37° C. […] Heart rate and left ventricular pressures are determined via a latex balloon which is inserted in the left ventricle and connected by stainless steel tubing to a pressure transducer. […] Perfusate flow rates are routinely determined throughout the experimental period. […]
At the end of the 120 min reperfusion period, the coronary artery snare is tightened, and a 0.5% suspension of fluorescent zinc cadmium sulfate particles ([…]) is perfused through the heart; this stains all of the myocardium, except that area at risk for infarct development (area-at-risk). […] The infarcted area (no stain) and the area-at-risk (no fluorescent particles) are calculated for each slice of left ventricle using a precalibrated image analyzer. […]

rabbit isolated heart [4] = settings: Liu et al., Cardiovasc. Res., 28:1057-1061, 1994; cited from earlier work
[5] = reverse direction assay, HLGPa, read-out: HLGPa IC50

CN(CCO)C(=O)[C@H](O)[C@H](Cc1ccccc1)NC(=O)c1cc2cc(Cl)ccc2[nH]1 [5-Chloro-1H-indole-2-carboxylic acid ((1S)-{(R)-hydroxy-[(2-hydroxy-ethyl)methyl-carbamoyl]-methyl}-2-phenyl-ethyl)-amide]
IC50 [1, 5]: 152 nM
IC50 [2]: 20 nM

CN(C)C(=O)[C@H](O)[C@H](Cc1ccccc1)NC(=O)c1cc2cc(Cl)ccc2[nH]1 [5-Chloro-1H-indole-2-carboxylic acid [(1S)-((R)-hydroxy-dimethylcarbamoyl-methyl)-2-phenyl-ethyl]-amide]
IC50 [1]: 108 nM
IC50 [2]: 155 nM

CON(C)C(=O)[C@H](O)[C@H](Cc1ccccc1)NC(=O)c1cc2cc(Cl)ccc2[nH]1 [5-Chloro-1H-indole-2-carboxylic acid {(1S)-[(R)-hydroxy-(methoxy-methylcarbamoyl)-methyl]-2-phenyl-ethyl}-amide]
IC50 [1, 5]: 51 nM
IC50 [2]: 110 nM

O=C(N[C@@H](Cc1ccccc1)C(=O)N1CC(O)C1)c1cc2cc(Cl)ccc2[nH]1 [5-chloro-1H-indole-2-carboxylic acid [(1S)-benzyl-2-(3-hydroxy-azetidin-1-yl)-2-oxo-ethyl]-amide]
cardioprotection relative to the control group (rabbit isolated heart [3]; 5 μM): significant cardioprotection
Infarct Area/Area-at-Risk (%IA/AAR) (rabbit isolated heart [3]; 5 μM, perfused from 30 min before 30 min regional ischemia through 120 min reperfusion, n=6): 31.4%

Nc1ccc(CCNc2ncnc3c2ncn3[C@@H]2O[C@H](CO)[C@@H](O)[C@H]2O)cc1 [APNEA, N^6-[2-(4-aminophenyl)ethyl]adenosine, reference compound]
Infarct Area/Area-at-Risk (%IA/AAR) (rabbit isolated heart [3]; 500 nM, perfused 5 min, then 10 min drug-free, before 30 min ischemia and 120 min reperfusion, n=9): 19.0%
pharmacologically induced cardioprotection in the rabbit isolated heart (rabbit isolated heart [4]): shown to pharmacologically induce cardioprotection

Reference: patent US5952322A, “Method of reducing tissue damage associated with non-cardiac ischemia using glycogen phosphorylase inhibitors” (Pfizer Inc., priority 1997, dated 1999)
